Reference: US10723694B2, “Propargyl-functionalized macrocyclic compounds” (KUWAIT UNIVERSITY, priority 2018, dated 2020)

Columns and labels:
Assay type in all cases: physicochemical
[1] = Ground state electronic absorption spectra (UV-Vis) in DMF; settings: for log ε at λmax / λmax (Q band absorption): in DMF
Protocol: Electronic absorption, which is measured by UV-Vis spectroscopy, is one of the best spectroscopic techniques for determination of Pc formation and characterization of Pc compounds. Generally, two absorption bands are observed for Pc structures in their electronic absorption spectra. One band, known as Q, is observed at around 600-750 nm due to the π→π* transitions from the highest occupied molecular orbital (HOMO) to the lowest unoccupied molecular orbital (LUMO) of the Pc ring, while the other band, known as B, or the Soret band, is observed at around 300-450 nm due to transitions from deeper it levels to the LUMO. The ground state electronic absorption spectra of the studied novel Pcs were measured in DMF solution.
The ground state electronic absorption spectra show monomeric behavior evidenced by single (narrow) Q band absorptions, which is typical for metallated complexes. The Q bands appear around 680 nm for the symmetric Pc2 and both asymmetric Pc3 and Pc4 in DMF (Table 1). On the other hand, the non-peripheral Pc5 show approximately 20 nm red-shifted Q band absorption at 700 nm when compared to the peripheral counterparts in the solvent (Table 1). The observed red spectral shifts are typical for Pc molecules with substituents at the non-peripheral positions and are presumably due to linear combinations of the atomic orbitals (LCAO) coefficients at the non-peripheral positions of the HOMO being greater than those at the peripheral positions. As a result, the HOMO level is destabilized more at the non-peripheral site than it is at the peripheral one. Essentially, the energy gap (ΔE) between the HOMO and LUMO becomes smaller, resulting in a bathochromic shift. The 49 nm blue shift for AzaPc1 is caused by the additional nitrogen atoms instead of CH groups in the Pc macrocyclic system. The B-bands are broad due to the superimposition of the B1 and B2 bands in the 340 to 380 nm region.

[2] = Fluorescence excitation and emission spectra in DMF; settings: for Stokes shift ΔStokes: difference between excitation and emission maxima
Protocol: Fluorescence behaviors of the AzaPc1/Pc2-Pc5 compounds were evaluated in DMF solutions. FIGS. 12A-12E show absorption, fluorescence emission and excitation spectra of these complexes.
Excitation maxima appear at 629 nm for AzaPc1, 679 nm for Pc2, 678 nm for Pc3, 682 nm for Pc4 and 700 nm for Pc5 in DMF. Emission maxima appear at 639 nm, 683 nm, 686 nm, 688 nm and 707 nm for AzaPc1/Pc2-Pc5, respectively. The observed Stokes' shifts, which are differences between the excitation and emission wavelength maxima, are between 4 and 10 nm for all of the zinc (II) complexes (Table 1). The observed Stokes' shifts are consistent with those of typical zinc (II) phthalocyanine complexes.

[3] = Fluorescence quantum yield determination; settings: DMF per text (Table 2 title prints DMSO)
Source text: Fluorescence emission occurs when an orbital electron of a photosensitizer relaxes from its singlet state to ground state upon emitting a photon of light. Fluorescence quantum yield (ΦF) indicates a measure of the efficiency of the fluorescence process and is defined as the ratio of the number of photons emitted to the number of photons absorbed. The fluorescence quantum yields (ΦF) may be determined using established methods described in existing literature. The ΦF values of the present AzaPc1/Pc2-Pc5 compounds are typical for those phthalocyanine compounds (Table 2). Particularly, ΦF values were measured to be 0.11 for AzaPc1, 0.16 for Pc2, 0.17 for Pc3, 0.14 for Pc4 and 0.11 for Pc5 in the exemplary DMF solvent system.

[4] = Fluorescence lifetime by time correlated single photon counting (TCSPC); settings: DMF
Protocol: Fluorescence lifetime (τF) refers to the average time that a molecule stays in its excited state before returning to its ground state by photon emission. The fluorescence lifetime values of the AzaPc1/Pc2-Pc5 compounds were determined by using time correlated single photon counting (TCSPC). All time-resolved fluorescence studies were carried out for the exemplary compounds in solution in DMF, and the fluorescence decays of the macrocycles were concluded in mono exponential curves.

[5] = Singlet oxygen quantum yield, chemical method with DPBF quencher; settings: DMF, 414 nm
Source text: Transferring of energy from a triplet state of a photosensitizer such as Pc to ground state molecular oxygen leads to the production of singlet oxygen. There is a necessity of high efficiency of energy transfer between the excited triplet state of photosensitizer and the ground state of oxygen in order to generate large amounts of singlet oxygen, essential for PDT applications. The singlet oxygen quantum yield (ΦA) values give the amount of the generated singlet oxygen. This value is an indication of the potential provided by the compounds as photosensitizers in applications where singlet oxygen is required. The ΦΔ values for AzaPc1/Pc2-Pc5 were determined in DMF by a chemical method using 1,3-diphenylisobenzofuran (DPBF) as a quencher. The disappearance of DPBF at 414 nm was monitored using UV-Vis spectrophotometer. Many factors can be responsible for the magnitude of the determined singlet oxygen quantum yield, including triplet excited state energy, ability of substituents and solvents to quench the singlet oxygen, the triplet excited state lifetime and the efficiency of the energy transfer between the triplet excited state and the ground state of oxygen.

[6] = Photodegradation under light irradiation; settings: DMF
Source text: Photodegradation is an indicator of the stability of compounds, which is useful for determining the photosensitizing ability of the compounds as PDT agents. The stability of photosensitizers under light irradiation is important for photochemical processes such as PDT because photosensitizers need to survive for a specific period in the body. Photodegradation degree can be detected by photodegradation quantum yield (Φd), which depends on structure, light intensity, solvent used and concentration of a compound of interest. Photodegradation of a compound under light irradiation can be used to study the compound stability, which is important for those molecules intended for the application in photocatalytic reactions. Collapse of absorption spectra without any distortion of the shape of the absorption spectra confirms photo-degradation not associated with photo-transformation into different forms of Pcs absorbing light in the visible region. The spectral changes for all of the exemplary AzaPc1/Pc2-Pc5 compounds were determined in response to light irradiation, and photodegradation occurred without phototransformation, because only Q and B bands were decreased, i.e., no new band formation was observed.
Pc derivatives and their macrocyclic analogs generate singlet oxygen when they are illuminated by an appropriate light. The formed […] via photooxidation reactions. Generally, photodegradation of Pc/Pc-analog compounds by light irradiation results in formation of the phthalamide residue. The photodegradation behavior of AzaPc1/Pc2-Pc5 in DMF were determined. The Φd values of these novel systems are on the order of 10^−4 (Table 2), consistent with values for other Pcs containing different metals and substituents.

[7] = Aggregation studies (UV-Vis) in organic solvents and at different concentrations
Source text: Macrocycle Pcs generate high aggregation tendencies due to the intermolecular interactions that take place between their 18 π-electrons. Accordingly, this self-association process would minimize their solubility in most solvent systems and therefore affect their spectroscopic, photophysical, photochemical, and electrochemical properties. Generally, aggregation is highly dependent on the concentration, temperature, nature of the substituents and/or their position and orientation with respect to the Pc skeleton, nature of the solvent media, and the central metal ion in the Pc-cores.
Pc molecules can form two types of aggregates in dissolved systems—H-type and J-type-depending on the nature, position and/or orientation of the substituents. In general, Pcs form H-type aggregates in solution, whereas J-type aggregates occur rarely. The formation of J-type aggregates among Pc structures is significant, since J-type aggregation is photoactive, while H-type aggregation is not.
The aggregation properties for the AzaPc1/Pc2-Pc5 compounds were determined in different organic solvents, namely, DCM, chloroform, DMF, DMSO, ethanol, methanol, THF and toluene.
Aggregation behaviors for the AzaPc1/Pc2-Pc5 compounds were also investigated in DMF at different concentrations in order to establish a suitable concentration for further photophysical/photochemical studies.

For `C#CCOCc1cc(C)cc(COCC#C)c1Oc1nc2c(nc1Oc1c(COCC#C)cc(C)cc1COCC#C)C1=Nc3c4nc(Oc5c(COCC#C)cc(C)cc5COCC#C)c(Oc5c(COCC#C)cc(C)cc5COCC#C)nc4c4[n]3[Zn][n]3c(c5nc(Oc6c(COCC#C)cc(C)cc6COCC#C)c(Oc6c(COCC#C)cc(C)cc6COCC#C)nc5c3=NC3=NC(=N4)c4nc(Oc5c(COCC#C)cc(C)cc5COCC#C)c(Oc5c(COCC#C)cc(C)cc5COCC#C)nc43)=NC2=N1` [AzaPc1], the “Blue shift of Q band absorption” value ([1]; DMF, aza analogue versus Pc macrocycle) was 49 nm, the “log ε at λmax” value [1] was 5.07 and the “λmax (Q band absorption)” value [1] was 629 nm. The “λEm (emission maximum)” value [2] was 639 nm, the “λEx (excitation maximum)” value [2] was 629 nm and the “Stokes shift ΔStokes” value [2] was 10 nm. For the same compound, the “Fluorescence quantum yield ΦF” value [3] was 0.14, the “Fluorescence lifetime τF” value [4] was 2.46 ns and the “Singlet oxygen quantum yield ΦΔ” value [5] was 0.63. For the same compound, the “Photodegradation quantum yield Φd (×10^−4)” value [6] was 4.30 ×10^−4.

With `C#CCOCc1cc(C)cc(COCC#C)c1Oc1cc2c(cc1Oc1c(COCC#C)cc(C)cc1COCC#C)C1=Nc3c4cc(Oc5c(COCC#C)cc(C)cc5COCC#C)c(Oc5c(COCC#C)cc(C)cc5COCC#C)cc4c4[n]3[Zn][n]3c(c5cc(Oc6c(COCC#C)cc(C)cc6COCC#C)c(Oc6c(COCC#C)cc(C)cc6COCC#C)cc5c3=NC3=NC(=N4)c4cc(Oc5c(COCC#C)cc(C)cc5COCC#C)c(Oc5c(COCC#C)cc(C)cc5COCC#C)cc43)=NC2=N1` [Pc2] the “log ε at λmax” value [1] was 5.33, the “λEm (emission maximum)” value [2] was 683 nm and the “λEx (excitation maximum)” value [2] was 679 nm. The “Stokes shift ΔStokes” value [2] was 4 nm, the “Fluorescence quantum yield ΦF” value [3] was 0.16 and the “Fluorescence lifetime τF” value [4] was 3.30 ns. The “Singlet oxygen quantum yield ΦΔ” value [5] was 0.60 and the “Photodegradation quantum yield Φd (×10^−4)” value [6] was 1.58 ×10^−4.

With `C#CCOCc1cc(C)cc(COCC#C)c1Oc1cc2c(cc1Cl)C1=Nc3c4cc(Oc5c(COCC#C)cc(C)cc5COCC#C)c(Cl)cc4c4[n]3[Zn][n]3c(c5cc(Cl)c(Oc6c(COCC#C)cc(C)cc6COCC#C)cc5c3=NC3=NC(=N4)c4cc(Oc5c(COCC#C)cc(C)cc5COCC#C)c(Cl)cc43)=NC2=N1` [Pc3] the “log ε at λmax” value [1] was 5.33, the “λEm (emission maximum)” value [2] was 686 nm and the “λEx (excitation maximum)” value [2] was 678 nm. The “Stokes shift ΔStokes” value [2] was 8 nm, the “Fluorescence quantum yield ΦF” value [3] was 0.17 and the “Fluorescence lifetime τF” value [4] was 2.84 ns. For the same compound, the “Singlet oxygen quantum yield ΦΔ” value [5] was 0.60 and the “Photodegradation quantum yield Φd (×10^−4)” value [6] was 1.40 ×10^−4.

For `C#CCOCc1cc(C)cc(COCC#C)c1Oc1ccc2c(c1)C1=NC2=Nc2c3cc(Oc4c(COCC#C)cc(C)cc4COCC#C)ccc3c3[n]2[Zn][n]2c(c4ccc(Oc5c(COCC#C)cc(C)cc5COCC#C)cc4c2=NC2=NC(=N3)c3cc(Oc4c(COCC#C)cc(C)cc4COCC#C)ccc32)=N1` [Pc4], the “log ε at λmax” value [1] was 5.21, the “λEm (emission maximum)” value [2] was 688 nm and the “λEx (excitation maximum)” value [2] was 682 nm. For the same compound, the “Stokes shift ΔStokes” value [2] was 6 nm, the Aggregation in methanol [7] was “small H-type aggregates were detected” and the “Fluorescence quantum yield ΦF” value [3] was 0.14. The “Fluorescence lifetime τF” value [4] was 3.37 ns, the “Singlet oxygen quantum yield ΦΔ” value [5] was 0.57 and the “Photodegradation quantum yield Φd (×10^−4)” value [6] was 1.12 ×10^−4.

For `[Zn+2].c1ccc2c(c1)-c1nc-2nc2[n-]c(nc3nc([n-]c4nc(n1)-c1ccccc1-4)-c1ccccc1-3)c1ccccc21` [Std-ZnPc, zinc(II) phthalocyanine, reference compound], the “log ε at λmax” value [1] was 5.37, the “λmax (Q band absorption)” value [1] was 670 nm and the “λEm (emission maximum)” value [2] was 676 nm. For the same compound, the “λEx (excitation maximum)” value [2] was 670 nm, the “Stokes shift ΔStokes” value [2] was 6 nm and the “Fluorescence quantum yield ΦF” value [3] was 0.17. For the same compound, the “Fluorescence lifetime τF” value [4] was 1.03 ns, the “Singlet oxygen quantum yield ΦΔ” value [5] was 0.56 and the “Photodegradation quantum yield Φd (×10^−4)” value [6] was 0.23 ×10^−4.
